Here are results for twelve molecules from patent publication US20060052365A1, “Protease inhibitors” (priority 2002, published 2006).

Molecules are shown by their SMILES.

Consider `O=C(N[C@@H](CC1CCCC1)C(=O)NC1CCCN(S(=O)(=O)c2ccccn2)CC1=O)c1ccco1` (stereo partly drawn) [Example 64, Furan-2-carboxylic acid {(S)-2-cyclopentyl-1-[3-oxo-1-(pyridine-2-sulfonyl)-azepan-4-ylcarbamoyl]ethyl}-amide], for which the melting point (usually the temperature of the solid-liquid transition) lay within 77 to 80 °C.

For `O=C(N[C@@H](CC1CCCC1)C(=O)NC1CCCN(C(=O)c2ccccc2)CC1=O)c1ccco1` (stereo partly drawn) [Example 72, Furan-2-carboxylic acid {(S)-2-cyclopentyl-1-[3-oxo-1-(1-phenyl-methanoyl)-azepan-4-ylcarbamoyl]-ethyl}-amide], the melting point is 97 to 100 °C.

In turn, `O=C(N[C@@H](CC1CCCC1)C(=O)NC1CCCN(C(=O)c2ccco2)CC1=O)c1ccco1` (stereo partly drawn) [Example 70, Furan-2-carboxylic acid {(S)-2-cyclopentyl-1-[1-(1-furan-2-yl-methanoyl)-3-oxo-azepan-4-ylcarbamoyl]-ethyl}-amide] gave a melting point of 85 to 88 °C.

`CS(=O)(=O)N1CCCC(NC(=O)[C@H](CC2CCCC2)NC(=O)c2ccco2)C(=O)C1` (stereo partly drawn) [Example 65, Furan-2-carboxylic acid [(S)-2-cyclopentyl-1-(1-methanesulfonyl-3-oxo-azepan-4ylcarbamoyl)-ethyl]-amide] yielded a melting point of 167 to 170 °C.

Regarding `O=C(N[C@@H](CC1CCCC1)C(=O)NC1CCCN(S(=O)(=O)c2ccccn2)CC1=O)c1ccco1` (stereo partly drawn) [Example 63, Furan-2-carboxylic acid {(S)-2-cyclopentyl-1-[3-oxo-1-(pyridine-2-sulfonyl)-azepan-4-ylcarbamoyl]ethyl}-amide], the melting point fell in the range of 81 to 84 °C.

In turn, `O=C(N[C@@H](CC1CCCC1)C(=O)NC1CCCN(C(=O)OCc2ccccc2)CC1=O)c1ccco1` (stereo partly drawn) [Example 62, 4-{(S)-3-Cyclopentyl-2-[(1-furan-2-yl-methanoyl)-amino]-propanoylamino)-3-oxo-azepane-1-carboxylic acid benzyl ester] yielded a melting point of 66 to 68 °C.

`O=C(N[C@@H](CC1CCCC1)C(=O)NC1CCCN(C(=O)OCc2ccccc2)CC1=O)c1ccco1` (stereo partly drawn) [Example 61, 4-{(S)-3-Cyclopentyl-2-[(1-furan-2-yl-methanoyl)-amino]-propanoylamino}-3-oxo-azepane-1-carboxylic acid benzyl ester] had a melting point of 72 to 74 °C.

The molecule `CS(=O)(=O)N1CCCC(NC(=O)[C@H](CC2CCCC2)NC(=O)c2ccco2)C(=O)C1` (stereo partly drawn) [Example 66, Furan-2-carboxylic acid [(S)-2-cyclopentyl-1-(1-methanesulfonyl-3-oxo-azepan-4-ylcarbamoyl)-ethyl]-amide] had a melting point of 158 to 161 °C.

`O=C(N[C@@H](CC1CCCC1)C(=O)NC1CCCN(C(=O)c2ccccc2)CC1=O)c1ccco1` (stereo partly drawn) [Example 71, Furan-2-carboxylic acid {(S)-2-cyclopentyl-1-[3-oxo-1-(1-phenyl-methanoyl)-azepan-4-ylcarbamoyl]-ethyl}-amide]: the melting point is 101 to 103 °C.

In turn, `O=C(N[C@@H](CC1CCCC1)C(=O)NC1CCCN(C(=O)c2ccco2)CC1=O)c1ccco1` (stereo partly drawn) [Example 69, Furan-2-carboxylic acid {(S)-2-cyclopentyl-1-[1-(1-furan-2-yl-methanoyl)-3-oxo-azepan-4-ylcarbamoyl]-ethyl}-amide] came in with a melting point of 88 to 89 °C.

On to `O=C(N[C@@H](CC1CCCC1)C(=O)NC1CCCN(S(=O)(=O)c2ccccc2)CC1=O)c1ccco1` (stereo partly drawn) [Example 68, Furan-2-carboxylic acid [(S)-1-(1-benzenesulfonyl-3-oxo-azepan-4-ylcarbamoyl)-2-cyclopentyl-ethyl]-amide], for which the melting point was in the range of 166 to 167 °C.

Molecule `O=C(N[C@@H](CC1CCCC1)C(=O)NC1CCCN(S(=O)(=O)c2ccccc2)CC1=O)c1ccco1` (stereo partly drawn) [Example 67, Furan-2-carboxylic acid [(S)-1-(1-benzenesulfonyl-3-oxo-azepan-4 ylcarbamoyl)-2-cyclopentyl-ethyl]-amide] yielded a melting point of 88 to 90 °C.
